# According to PubChem BioAssay (NCI):
#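 1) Cells in 96-well plates. 2) Compound, 48 h, 5 concentrations. 3) Linear interpolation between surrounding doses. 4) Unreached endpoint = highest concentration. TGI denotes the concentration required for complete inhibition of growth.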
# Experiments:
# Experiment in all cases: DTP human tumour cell line panel, 48 h
# A549 NSCLC = tested on: A549 NSCLC
# COLO 205 colon = tested on: COLO 205 colon
# SK-MEL-2 melanoma = tested on: SK-MEL-2 melanoma
# MOLT-4 leukemia = tested on: MOLT-4 leukemia
# NCI-H522 lung = tested on: NCI-H522 lung
# OVCAR-5 ovarian = tested on: OVCAR-5 ovarian
# SN12C renal = tested on: SN12C renal
# SR leukemia = tested on: SR leukemia
# SK-MEL-28 melanoma = tested on: SK-MEL-28 melanoma
# OVCAR-3 ovarian = tested on: OVCAR-3 ovarian
# UACC-257 melanoma = tested on: UACC-257 melanoma
# MDA-MB-231 breast = tested on: MDA-MB-231 breast
# DU-145 prostate = tested on: DU-145 prostate
# PC-3 prostate = tested on: PC-3 prostate
# K-562 leukemia = tested on: K-562 leukemia
# BT-549 breast = tested on: BT-549 breast
# SF-295 CNS = tested on: SF-295 CNS
# RPMI-8226 leukemia = tested on: RPMI-8226 leukemia
# LOX IMVI melanoma = tested on: LOX IMVI melanoma
# ACHN renal = tested on: ACHN renal
# TK-10 renal = tested on: TK-10 renal
# HT29 colon = tested on: HT29 colon
# HCT-15 colon = tested on: HCT-15 colon
# RXF 393 renal = tested on: RXF 393 renal
# T-47D breast = tested on: T-47D breast
# NCI-H460 lung = tested on: NCI-H460 lung
# SNB-75 CNS = tested on: SNB-75 CNS
# SK-OV-3 ovarian = tested on: SK-OV-3 ovarian
# OVCAR-8 ovarian = tested on: OVCAR-8 ovarian
# NCI-H23 lung = tested on: NCI-H23 lung
# OVCAR-4 ovarian = tested on: OVCAR-4 ovarian
# M14 melanoma = tested on: M14 melanoma
# SF-268 CNS = tested on: SF-268 CNS
# HS 578T breast = tested on: HS 578T breast
# KM12 colon = tested on: KM12 colon
# EKVX NSCLC = tested on: EKVX NSCLC
# HOP-92 NSCLC = tested on: HOP-92 NSCLC
# SNB-19 CNS = tested on: SNB-19 CNS
# SW-620 colon = tested on: SW-620 colon
# SF-539 CNS = tested on: SF-539 CNS
# HCT-116 colon = tested on: HCT-116 colon
# U251 CNS = tested on: U251 CNS
# HCC-2998 colon = tested on: HCC-2998 colon
# CCRF-CEM leukemia = tested on: CCRF-CEM leukemia
# NCI/ADR-RES ovarian = tested on: NCI/ADR-RES ovarian
# SK-MEL-5 melanoma = tested on: SK-MEL-5 melanoma
# MDA-N = tested on: MDA-N
# UACC-62 melanoma = tested on: UACC-62 melanoma
# CAKI-1 renal = tested on: CAKI-1 renal
# HL-60(TB) leukemia = tested on: HL-60(TB) leukemia
# MCF7 breast = tested on: MCF7 breast
# UO-31 renal = tested on: UO-31 renal
# IGROV1 ovarian = tested on: IGROV1 ovarian
# MDA-MB-435 = tested on: MDA-MB-435
# MALME-3M melanoma = tested on: MALME-3M melanoma
# HOP-62 NSCLC = tested on: HOP-62 NSCLC
# 786-0 renal = tested on: 786-0 renal
# A498 renal = tested on: A498 renal
# NCI-H226 lung = tested on: NCI-H226 lung
compound,measurement,setting,value
CCOC(=O)C1(C(F)(F)F)N=C(CC)OC(N2CCOCC2)=N1 (configuration not stated),TGI,A549 NSCLC,> 100 µM
same,TGI,COLO 205 colon,> 100 µM
same,TGI,SK-MEL-2 melanoma,> 100 µM
same,TGI,MOLT-4 leukemia,> 100 µM
same,TGI,NCI-H522 lung,> 100 µM
same,TGI,OVCAR-5 ovarian,> 100 µM
same,TGI,SN12C renal,> 100 µM
same,TGI,SR leukemia,> 100 µM
same,TGI,SK-MEL-28 melanoma,> 100 µM
same,TGI,OVCAR-3 ovarian,> 100 µM
same,TGI,UACC-257 melanoma,> 100 µM
same,TGI,MDA-MB-231 breast,> 100 µM
same,TGI,DU-145 prostate,> 100 µM
same,TGI,PC-3 prostate,> 100 µM
same,TGI,K-562 leukemia,> 100 µM
same,TGI,BT-549 breast,> 100 µM
same,TGI,SF-295 CNS,> 100 µM
same,TGI,RPMI-8226 leukemia,> 100 µM
same,TGI,LOX IMVI melanoma,> 100 µM
same,TGI,ACHN renal,> 100 µM
same,TGI,TK-10 renal,> 100 µM
same,TGI,HT29 colon,> 100 µM
same,TGI,HCT-15 colon,> 100 µM
same,TGI,RXF 393 renal,> 100 µM
same,TGI,T-47D breast,> 100 µM
same,TGI,NCI-H460 lung,> 100 µM
same,TGI,SNB-75 CNS,> 100 µM
same,TGI,SK-OV-3 ovarian,> 100 µM
same,TGI,OVCAR-8 ovarian,> 100 µM
same,TGI,NCI-H23 lung,> 100 µM
same,TGI,OVCAR-4 ovarian,> 100 µM
same,TGI,M14 melanoma,> 100 µM
same,TGI,SF-268 CNS,> 100 µM
same,TGI,HS 578T breast,> 100 µM
same,TGI,KM12 colon,> 100 µM
same,TGI,EKVX NSCLC,> 100 µM
same,TGI,HOP-92 NSCLC,> 100 µM
same,TGI,SNB-19 CNS,> 100 µM
same,TGI,SW-620 colon,> 100 µM
same,TGI,SF-539 CNS,> 100 µM
same,TGI,HCT-116 colon,> 100 µM
same,TGI,U251 CNS,> 100 µM
same,TGI,HCC-2998 colon,> 100 µM
same,TGI,CCRF-CEM leukemia,> 100 µM
same,TGI,NCI/ADR-RES ovarian,> 100 µM
same,TGI,SK-MEL-5 melanoma,> 100 µM
same,TGI,MDA-N,> 100 µM
same,TGI,UACC-62 melanoma,> 100 µM
same,TGI,CAKI-1 renal,> 100 µM
same,TGI,HL-60(TB) leukemia,> 100 µM
same,TGI,MCF7 breast,> 100 µM
same,TGI,UO-31 renal,> 100 µM
same,TGI,IGROV1 ovarian,> 100 µM
same,TGI,MDA-MB-435,> 100 µM
Cc1ccc(S(=O)(=O)n2cc(C#N)c(C#N)c2)cc1,TGI,A549 NSCLC,78.9 µM
same,TGI,COLO 205 colon,68.2 µM
same,TGI,SK-MEL-2 melanoma,52 µM
same,TGI,MOLT-4 leukemia,> 100 µM
same,TGI,MALME-3M melanoma,33.9 µM
same,TGI,NCI-H522 lung,40 µM
same,TGI,OVCAR-5 ovarian,81.2 µM
same,TGI,SN12C renal,69.1 µM
same,TGI,SR leukemia,71 µM
same,TGI,SK-MEL-28 melanoma,30.8 µM
same,TGI,OVCAR-3 ovarian,46.2 µM
same,TGI,UACC-257 melanoma,> 100 µM
same,TGI,MDA-MB-231 breast,> 100 µM
same,TGI,HOP-62 NSCLC,68.8 µM
same,TGI,DU-145 prostate,> 100 µM
same,TGI,PC-3 prostate,85 µM
same,TGI,K-562 leukemia,> 100 µM
same,TGI,BT-549 breast,45.2 µM
same,TGI,SF-295 CNS,61.6 µM
same,TGI,LOX IMVI melanoma,52.1 µM
same,TGI,786-0 renal,> 100 µM
same,TGI,ACHN renal,40.7 µM
same,TGI,TK-10 renal,> 100 µM
same,TGI,HT29 colon,65.9 µM
same,TGI,HCT-15 colon,59 µM
same,TGI,RXF 393 renal,94.3 µM
same,TGI,T-47D breast,72.4 µM
same,TGI,NCI-H460 lung,> 100 µM
same,TGI,SNB-75 CNS,> 100 µM
same,TGI,SK-OV-3 ovarian,91.9 µM
same,TGI,OVCAR-8 ovarian,> 100 µM
same,TGI,NCI-H23 lung,91.3 µM
same,TGI,OVCAR-4 ovarian,> 100 µM
same,TGI,M14 melanoma,47.7 µM
same,TGI,SF-268 CNS,69.2 µM
same,TGI,HS 578T breast,61.4 µM
same,TGI,A498 renal,71.9 µM
same,TGI,KM12 colon,> 100 µM
same,TGI,EKVX NSCLC,> 100 µM
same,TGI,HOP-92 NSCLC,88 µM
same,TGI,SW-620 colon,80 µM
same,TGI,SF-539 CNS,39.9 µM
same,TGI,HCT-116 colon,> 100 µM
same,TGI,U251 CNS,> 100 µM
same,TGI,HCC-2998 colon,48.2 µM
same,TGI,CCRF-CEM leukemia,92.1 µM
same,TGI,NCI/ADR-RES ovarian,> 100 µM
same,TGI,SK-MEL-5 melanoma,42 µM
same,TGI,MDA-N,70.7 µM
same,TGI,UACC-62 melanoma,33.7 µM
same,TGI,CAKI-1 renal,59.1 µM
same,TGI,HL-60(TB) leukemia,71.6 µM
same,TGI,MCF7 breast,48.2 µM
same,TGI,UO-31 renal,72.2 µM
same,TGI,IGROV1 ovarian,> 100 µM
same,TGI,MDA-MB-435,45.6 µM
CN(C)C(=S)Oc1ccc2ccc(=O)oc2c1,TGI,A549 NSCLC,> 100 µM
same,TGI,COLO 205 colon,> 100 µM
same,TGI,SK-MEL-2 melanoma,> 100 µM
same,TGI,MOLT-4 leukemia,> 100 µM
same,TGI,MALME-3M melanoma,> 100 µM
same,TGI,NCI-H522 lung,> 100 µM
same,TGI,OVCAR-5 ovarian,> 100 µM
same,TGI,SN12C renal,> 100 µM
same,TGI,SR leukemia,> 100 µM
same,TGI,SK-MEL-28 melanoma,> 100 µM
same,TGI,OVCAR-3 ovarian,> 100 µM
same,TGI,UACC-257 melanoma,> 100 µM
same,TGI,MDA-MB-231 breast,> 100 µM
same,TGI,HOP-62 NSCLC,> 100 µM
same,TGI,DU-145 prostate,> 100 µM
same,TGI,PC-3 prostate,> 100 µM
same,TGI,BT-549 breast,> 100 µM
same,TGI,SF-295 CNS,> 100 µM
same,TGI,RPMI-8226 leukemia,> 100 µM
same,TGI,LOX IMVI melanoma,> 100 µM
same,TGI,786-0 renal,> 100 µM
same,TGI,ACHN renal,> 100 µM
same,TGI,TK-10 renal,> 100 µM
same,TGI,HT29 colon,> 100 µM
same,TGI,HCT-15 colon,> 100 µM
same,TGI,RXF 393 renal,> 100 µM
same,TGI,T-47D breast,> 100 µM
same,TGI,NCI-H460 lung,> 100 µM
same,TGI,SNB-75 CNS,> 100 µM
same,TGI,SK-OV-3 ovarian,> 100 µM
same,TGI,OVCAR-8 ovarian,> 100 µM
same,TGI,NCI-H23 lung,> 100 µM
same,TGI,OVCAR-4 ovarian,> 100 µM
same,TGI,M14 melanoma,> 100 µM
same,TGI,NCI-H226 lung,> 100 µM
same,TGI,SF-268 CNS,> 100 µM
same,TGI,HS 578T breast,> 100 µM
same,TGI,A498 renal,> 100 µM
same,TGI,KM12 colon,> 100 µM
same,TGI,EKVX NSCLC,> 100 µM
same,TGI,HOP-92 NSCLC,> 100 µM
same,TGI,SNB-19 CNS,> 100 µM
same,TGI,SW-620 colon,> 100 µM
same,TGI,SF-539 CNS,> 100 µM
same,TGI,HCT-116 colon,> 100 µM
same,TGI,U251 CNS,> 100 µM
same,TGI,HCC-2998 colon,> 100 µM
same,TGI,NCI/ADR-RES ovarian,> 100 µM
same,TGI,SK-MEL-5 melanoma,> 100 µM
same,TGI,MDA-N,> 100 µM
same,TGI,UACC-62 melanoma,> 100 µM
same,TGI,CAKI-1 renal,> 100 µM
same,TGI,HL-60(TB) leukemia,> 100 µM
same,TGI,MCF7 breast,> 100 µM
same,TGI,UO-31 renal,> 100 µM
same,TGI,IGROV1 ovarian,> 100 µM
same,TGI,MDA-MB-435,> 100 µM
